Here are results for 24 molecules from US12479845B2, “Imidazopyridine derivative compounds and use of same” (HANMI PHARM. CO., LTD., priority 2019, dated 2025).

Each structure is given as a SMILES string.

The test system of experiment [1] is NCI-H1417 cells. Put plainly: Cell growth suppression test (CellTiter-Glo Luminescent Cell Viability Assay, 10 days treatment). The following applies: Homo sapiens, 240 h, treated for 10 days. It counts as cell-based. The procedure: Cell growth suppression effects of the synthesized compounds on NCI-H1417 cells were identified. The cells were treated with the synthesized compounds for 10 days. Then, in order to test the cell growth suppression, CellTiter-Glo Luminescent Cell Viability Assay (available from Promega, USA) was used. This test is to measure emission signals proportional to the number of ATPs based on a fixed amount of ATPs, which represents the presence of metabolically active cells, thereby determining the number of viable cells. The results are expressed as a Gl50 value. As for a control, GSK2879552 (available from GlaxoSmithKline USA) was used.
In general terms: In ATP-based viability assays light output follows the ATP content of the culture.

The target of experiment [2] is LSD1 (Homo sapiens (Human), UniProt O60341). Put plainly: Biochemical analysis of LSD1 histone demethylase inhibition (BPS Bioscience LSD1 fluorescence analysis kit, HRP/Amplex Red). The following applies: demethylation of Lys4 of histone H3. The procedure:
The biochemical inhibition activity of the synthesized compounds on LSD1 was measured. The activity measurement was performed using LSD1 fluorescence analysis kit (available from BPS Bioscience Co., Ltd., Catalog No: 50106). This analysis kit is designed to measure activity of LSD1 enzyme. H2O2 generated upon demethylation of Lys4 moiety of histone H3 by LSD1 is reacted with HRP/Amplex Red reagent to form fluorescent Resorufin, which is measured by this kit, thereby confirming demethylation.
The results are expressed as an IC50 value. As for a control, GSK2879552 (available from GlaxoSmithKline USA) was used.

As to `CO[C@H]1CCN(c2ccc(-n3c(-c4ccc(C#N)c(F)c4)nc4c(N5CCC[C@@H](N)C5)ccnc43)c(F)c2)C1` [Example 25, 4-(7-((R)-3-aminopiperidine-1-yl)-3-(2-fluoro-4-((S)-3-methoxypyrrolidine-1-yl)phenyl)-3H-imidazo[4,5-b]pyridine-2-yl)-2-fluorobenzonitrile], halving of growth in experiment [1] (GI50) required 4.4 nM. In experiment [2], the half-inhibitory concentration (IC50) – broadly, the concentration that gives 50% inhibition – was 38 nM.

As to `CO[C@H]1CCN(c2ccc(-n3c(-c4ccc(C#N)c(F)c4)nc4c(N5CCCC[C@@H](N)C5)ccnc43)c(F)c2)C1` [Example 67, 4-(7-((R)-3-aminoazepane-1-yl)-3-(2-fluoro-4-((S)-3-methoxypyrrolidine-1-yl)phenyl)-3H-imidazo[4,5-b]pyridine-2-yl)-2-fluorobenzonitrile], in experiment [1], the 50% growth inhibitory concentration (GI50) (in general, the concentration at which growth is held to half of that of the control) is 2.7 nM. The molecule further registered an IC50 in experiment [2] of 30 nM. On to `CN(C)c1ccc(-n2c(-c3ccc(C#N)c(F)c3)nc3c(N4CCC[C@@H](N)C4)ccnc32)cc1` [Example 14, (R)-4-(7-(3-aminopiperidine-1-yl)-3-(4-(dimethylamino)phenyl)-3H-imidazo[4,5-b]pyridine-2-yl)-2-fluorobenzonitrile], for which half-maximal inhibition in experiment [2] (IC50) was put at 26 nM. `CC(=O)O[C@H]1CCN(c2ccc(-n3c(-c4ccc(C#N)c(F)c4)nc4c(N5CCC[C@@H](N)C5)ccnc43)c(F)c2)C1` [Example 32, (S)-1-(4-(7-((R)-3-aminopiperidine-1-yl)-2-(4-cyano-3-fluorophenyl)-3H-imidazo[4,5-b]pyridine-3-yl)-3-fluorophenyl)pyrrolidine-3-yl acetate] showed a concentration for 50% growth inhibition (GI50) in experiment [1] of 46 nM. Moreover, the 50% inhibitory concentration (IC50) in experiment [2] worked out at 38 nM. Taken in the same sequence, the figures for `N#Cc1ccc(-c2nc3c(N4CCCC[C@@H](N)C4)ccnc3n2-c2ccc(C3CC3)cc2)cc1F` [Example 8, (R)-4-(7-(3-aminoazepane-1-yl)-3-(4-cyclopropylphenyl)-3H-imidazo[4,5-b]pyridine-2-yl)-2-fluorobenzonitrile] were 56 nM and 23 nM.

`N#Cc1ccc(-c2nc3c(N4CCC[C@@H](N)C4)ccnc3n2-c2ccc(N3CC4COCC4C3)cc2F)cc1F` (stereo partly drawn) [Example 49, 4-(7-((R)-3-aminopiperidine-1-yl)-3-(2-fluoro-4-(tetrahydro-1H-furo[3,4-c]pyrrole-5(3H)-yl)phenyl)-3H-imidazo[4,5-b]pyridine-2-yl)-2-fluorobenzonitrile] showed a 50% growth inhibitory concentration (GI50) in experiment [1] of 5.3 nM. In experiment [2], this molecule yielded an IC50 of 30 nM. Regarding `CN[C@@H]1CCCN(c2ccnc3c2nc(-c2ccc(C#N)c(F)c2)n3-c2ccc(N3CCCC3)cc2)C1` [Example 12, (R)-2-fluoro-4-(7-(3-(methylamino)piperidine-1-yl)-3-(4-(pyrrolidine-1-yl)phenyl)-3H-imidazo[4,5-b]pyridine-2-yl)benzonitrile], the IC50 in experiment [2] worked out at 24 nM. `N#Cc1ccc(-c2nc3c(N4CCC[C@@H](N)C4)ccnc3n2-c2ccc(N3CCCCC3)cc2)cc1F` [Example 9, (R)-4-(7-(3-aminopiperidine-1-yl)-3-(4-(piperidine-1-yl)phenyl)-3H-imidazo[4,5-b]pyridine-2-yl)-2-fluorobenzonitrile] registered a GI50 in experiment [1] of 100 nM. In experiment [2], this molecule returned an IC50 of 38 nM. As for `CO[C@H]1CCN(c2ccc(-n3c(-c4ccc(C#N)c(F)c4)nc4c(N5CCC6CCNC6C5)ccnc43)c(F)c2)C1` (stereo partly drawn) [Example 61, 2-fluoro-4-(3-(2-fluoro-4-((S)-3-methoxypyrrolidine-1-yl)phenyl)-7-(octahydro-6H-pyrrolo[2,3-c]pyridine-6-yl)-3H-imidazo[4,5-b]pyridine-2-yl)benzonitrile], growth in experiment [1] was halved (GI50) at 11 nM. This molecule yielded an IC50 in experiment [2] of 38 nM. The matching figures for `CO[C@@H]1CCN(c2ccc(-n3c(-c4ccc(C#N)c(F)c4)nc4c(N5CCC[C@@H](N)C5)ccnc43)c(F)c2)C1` [Example 24, 4-(7-((R)-3-aminopiperidine-1-yl)-3-(2-fluoro-4-((R)-3-methoxypyrrolidine-1-yl)phenyl)-3H-imidazo[4,5-b]pyridine-2-yl)-2-fluorobenzonitrile]: 7.6 nM and 19 nM.

Molecule `N#Cc1ccc(-c2nc3c(N4CCC[C@@H](N)C4)ccnc3n2-c2ccc(C3CC3)cc2F)cc1F` [Example 11, (R)-4-(7-(3-aminopiperidine-1-yl)-3-(4-cyclopropyl-2-fluorophenyl)-3H-imidazo[4,5-b]pyridine-2-yl)-2-fluorobenzonitrile] displayed a GI50 in experiment [1] of 24 nM. In experiment [2], this molecule came in with a 50% inhibitory concentration (IC50) of 21 nM.

For the molecule `N#Cc1ccc(-c2nc3c(N4CCCC[C@@H](N)C4)ccnc3n2-c2ccc(N3CC4COCC4C3)cc2F)cc1F` (stereo partly drawn) [Example 73, 4-(7-((R)-3-aminoazepane-1-yl)-3-(2-fluoro-4-(tetrahydro-1H-furo[3,4-c]pyrrole-5(3H)-yl)phenyl)-3H-imidazo[4,5-b]pyridine-2-yl)-2-fluorobenzonitrile], in experiment [2], the concentration for half-maximal inhibition (IC50) amounted to 28 nM. In turn, `N#Cc1ccc(-c2nc3c(N4CC[C@@H](N)C4)ccnc3n2-c2ccc(C3CC3)cc2)cc1` [Example 2, (R)-4-(7-(3-aminopyrrolidine-1-yl)-3-(4-cyclopropylphenyl)-3H-imidazo[4,5-b]pyridine-2-yl)benzonitrile] came in with a GI50 in experiment [1] of 40 nM. Besides, in experiment [2], the 50% inhibitory concentration (IC50) worked out at 162 nM.

In experiment [1], `N#Cc1ccc(-c2nc3c(N4CCC[C@@H](N)C4)ccnc3n2-c2ccc(N3CCCCC3)cc2F)cc1F` [Example 10, (R)-4-(7-(3-aminopiperidine-1-yl)-3-(2-fluoro-4-(piperidine-1-yl)phenyl)-3H-imidazo[4,5-b]pyridine-2-yl)-2-fluorobenzonitrile] came in with a 50% growth inhibitory concentration (GI50) of 30 nM. In experiment [2], this molecule came in with an IC50 of 40 nM. As to `COC1CCN(c2ccc(-n3c(-c4ccc(C#N)c(F)c4)nc4c(N5CCC[C@@H](N)C5)ccnc43)c(F)c2)C1` (stereo partly drawn) [Example 23, 4-(7-((R)-3-aminopiperidine-1-yl)-3-(2-fluoro-4-(3-methoxypyrrolidine-1-yl)phenyl)-3H-imidazo[4,5-b]pyridine-2-yl)-2-fluorobenzonitrile], the concentration for 50% growth inhibition (GI50) in experiment [1] stood at 4.8 nM. Besides, the IC50 in experiment [2] was found to be 17 nM. The matching figures for `N#Cc1ccc(-c2nc3c(N4CCC[C@@H](N)C4)ccnc3n2-c2ccc(N3CCCC3)cc2)cc1F` [Example 13, (R)-4-(7-(3-aminopiperidine-1-yl)-3-(4-(pyrrolidine-1-yl)phenyl)-3H-imidazo[4,5-b]pyridine-2-yl)-2-fluorobenzonitrile]: 62 nM and 23 nM. For the molecule `N#Cc1ccc(-c2nc3c(N4CCC[C@@H](N)C4)ccnc3n2-c2c(F)cc(N3CCCC3)cc2F)cc1F` [Example 19, (R)-4-(7-(3-aminopiperidine-1-yl)-3-(2,6-difluoro-4-(pyrrolidine-1-yl)phenyl)-3H-imidazo[4,5-b]pyridine-2-yl)-2-fluorobenzonitrile], in experiment [1], the 50% growth inhibitory concentration (GI50) stood at 18 nM. The midpoint of inhibition in experiment [2], the IC50, lay at 29 nM. Taken in the same sequence, the figures for `CCO[C@H]1CCN(c2ccc(-n3c(-c4ccc(C#N)c(F)c4)nc4c(N5CCC[C@@H](N)C5)ccnc43)c(F)c2)C1` [Example 39] were 3.6 nM and 25 nM. In experiment [1], `N#Cc1ccc(-c2nc3c(N4CCC[C@@H](N)C4)ccnc3n2-c2ccc(N3CC[C@H](Cl)C3)cc2F)cc1F` [Example 36, 4-(7-((R)-3-aminopiperidine-1-yl)-3-(4-((S)-3-chloropyrrolidine-1-yl)-2-fluorophenyl)-3H-imidazo[4,5-b]pyridine-2-yl)-2-fluorobenzonitrile] gave a GI50 of 26 nM. In experiment [2], this molecule showed a concentration for half-maximal inhibition (IC50) of 26 nM. For `CO[C@H]1CCN(c2ccc(-n3c(-c4ccc(C#N)c(F)c4)nc4c(N5CCC[C@H](N)C5)ccnc43)c(F)c2)C1` [Example 62, 4-(7-((S)-3-aminopiperidine-1-yl)-3-(2-fluoro-4-((S)-3-methoxypyrrolidine-1-yl)phenyl)-3H-imidazo[4,5-b]pyridine-2-yl)-2-fluorobenzonitrile], the GI50 in experiment [1] is 20 nM. Besides, the midpoint of inhibition in experiment [2], the IC50, lay at 36 nM. Taken in the same sequence, the figures for `CO[C@H]1CCN(c2ccc(-n3c(-c4ccc(C#N)c(F)c4)nc4c(N5CCC(N)C5)ccnc43)c(F)c2)C1` (stereo partly drawn) [Example 64, 4-(7-(3-aminopyrrolidine-1-yl)-3-(2-fluoro-4-((S)-3-methoxypyrrolidine-1-yl)phenyl)-3H-imidazo[4,5-b]pyridine-2-yl)-2-fluorobenzonitrile] were 14 nM and 24 nM. The matching figures for `N#Cc1ccc(-c2nc3c(N4CCC[C@@H](N)C4)ccnc3n2-c2ccc(N3CCCC3)cc2F)cc1F` [Example 27, (R)-4-(7-(3-aminopiperidine-1-yl)-3-(2-fluoro-4-(pyrrolidine-1-yl)phenyl)-3H-imidazo[4,5-b]pyridine-2-yl)-2-fluorobenzonitrile]: 64 nM and 37 nM. `COC1CN(c2ccc(-n3c(-c4ccc(C#N)c(F)c4)nc4c(N5CCC[C@@H](N)C5)ccnc43)c(F)c2)C1` [Example 31, (R)-4-(7-(3-aminopiperidine-1-yl)-3-(2-fluoro-4-(3-methoxyazetidine-1-yl)phenyl)-3H-imidazo[4,5-b]pyridine-2-yl)-2-fluorobenzonitrile]: the concentration for 50% growth inhibition (GI50) in experiment [1] worked out at 32 nM. Moreover, in experiment [2], the 50% inhibitory concentration (IC50) worked out at 30 nM. In the case of `N#Cc1ccc(-c2nc3c(N4CCC[C@@H](N)C4)ccnc3n2-c2ccc(OC3CCCC3)cc2F)cc1F` [Example 30], in experiment [1], the GI50 is 62 nM. This counts as double-digit nanomolar.
